The source of these data is patent publication US12385042B2, “Cell-penetrating peptides” (VECTIOPEP OÜ, priority 2019, dated 2025).

Molecules are shown by their SMILES. “Also recorded” adds a separate entry of the source. Read-outs that look alike come from different tables or passages of the source. Where a SMILES comes first, the peptide text is derived from it. Bridges are numbered along the chain shown (N, C = ends). Roman numbers before positions name the chains, in order. [ ]: non-standard residue; d: D form. The star is where a group is joined. Arachidoyl = CCCCCCCCCCCCCCCCCCCC(=O)*; Stearoyl = CCCCCCCCCCCCCCCCCC(=O)*; Orn = NCCC[C@H](N)C(=O)O

The nature of data set [1]: Fluorescent dye (PicoGreen) intercalation and heparin displacement assay of CPP/siRNA complexes. In kind it is physicochemical. As to conditions: for accessibility of siRNA in complexes (dye intercalation): MR30, no heparin. The gist of the method:
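PicoGreen fluorescence (ex 492/em 535 nm) of CPP/siRNA complexes in water after 5 min with dye, reporting siRNA accessibility. In the displacement arm, complexes were first incubated with heparin at varying concentrations for 30 min at 37 °C before adding PicoGreen.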

In data set [2] the test system is organs of BALB/c mice. Put plainly: Gene delivery in vivo (CPP/pDNA, i.v., organ luminescence). Details: species or system mouse. As to conditions: for reporter gene expression in organs after i.v. CPP/pDNA (in words): CR2 or CR4, 50 μg or 20 μg pDNA, 24 h. How it is done:
For in vivo pDNA delivery studies BALB/c mice were used. Each animal received a single […] intravenous (i.v.) injection of the complexes at CR2 or CR4. Two doses of pDNA […] were used. After 24 hr, the mice were sacrificed using cervical dislocation, and whole organs were harvested and snap-frozen on dry ice. The organs were homogenized, and luminescence was measured.

Data set [3] concerns CHO stably expressing green fluorescent protein (GFP). Put plainly: GFP gene downregulation by CPP/siGFP complexes (lysate fluorescence, FACS, confocal). In kind it is cell-based. As to conditions: for GFP signal in confocal images: live cells treated with CPP/siGFP complexes. The gist of the method: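 CHO-GFP cells (5×10^5/well) in serum-containing medium exposed 4 h at 37 °C to CPP/siGFP complexes (peptide:siRNA molar ratio 40:1, siRNA 100 nM final), then 44 h further culture. GFP read as protein-normalized lysate fluorescence, by FACS (fraction below 0.1% untreated-cell signal), or by confocal imaging after 48 h.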

Data set [4] relates to U87 MG-luc2 human glioma cells, stably expressing luc2. Put plainly: Luciferase gene downregulation by CPP/siRNA (siLuc2) complexes. In kind it is cell-based. As to conditions: for luciferase downregulation efficiency (in words) / Red (%) (reduction, based on remaining luminescence on U87 cells post-treatment): CPP/siRNA complexes; for luciferase downregulation efficiency (in words): comparison between CPPs; for Red (%) (reduction, based on remaining luminescence on U87 cells post-treatment): siRNA against luciferase; for IC50: read-out: IC50 (siRNA concentration), luciferase downregulation; for remaining reporter activity: molar ratio 30 (MR30, peptide to siRNA), untreated cells 100%. The method in brief: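 U87-luc2 cells in serum-containing medium got peptide/siLuc2 complexes formed in water (pH 5.3-6.3, MR 40:1, 1 h RT) at 25 nM siRNA for 4 h at 37 °C, then 20 h more. Lysate luminescence normalized to protein; in other runs, MR30/10 nM in HEPES-FBS, or varied MR at 50 nM, vs untreated (100%).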

Setting [5] is: complexes formed at MR30, average.

Turning to `CCCCCCCCCCCCCCCCCCCC(=O)N[C@@H](Cc1c[nH]cn1)C(=O)N[C@@H](Cc1c[nH]cn1)C(=O)N[C@@H](Cc1c[nH]cn1)C(=O)N[C@@H](Cc1c[nH]cn1)C(=O)N[C@@H](Cc1ccc(O)cc1)C(=O)N[C@@H](Cc1c[nH]cn1)C(=O)N[C@@H](Cc1c[nH]cn1)C(=O)NCC(=O)NCCC[C@H](N)C(=O)N[C@H](C(=O)N[C@@H](CC(C)C)C(=O)N[C@@H](CC(C)C)C(=O)N[C@@H](CCCCN)C(=O)N[C@@H](C)C(=O)N[C@@H](CC(C)C)C(=O)N[C@@H](CCCCN)C(=O)N[C@@H](C)C(=O)N[C@@H](CC(C)C)C(=O)N[C@@H](C)C(=O)N[C@@H](CCCCN)C(=O)N[C@@H](C)C(=O)N[C@H](C(=O)N[C@@H](CC(C)C)C(N)=O)[C@@H](C)CC)[C@@H](C)CC` [NF70] (I: H-[Orn]ILLKALKALAKAIL-NH2 / II: Arachidoyl-HHHHYHHG; amide I:1-II:C), the “accessibility of siRNA in complexes (dye intercalation)” value in data set [1] is reported as “low accessibility of siRNA”. For the same compound, the “reporter gene expression in organs after i.v. CPP/pDNA (in words)” value in data set [2] was “very low transfection levels in vivo”. In data set [3], the “GFP signal in confocal images” value is “detected GFP signal was the lowest”. Besides, in data set [4] (listed as H6-C20), the “luciferase downregulation efficiency (in words)” value is listed as “equally strong downregulation of the luciferase gene; also recorded: at MR40 it was even more efficient than PF6 or H4-C18”. Further, the “Red (%) (reduction, based on remaining luminescence on U87 cells post-treatment)” value in data set [4] was 92%. In addition, the “downregulation of luciferase activity” value in data set [4] (H6 series, effect of fatty acid length) is given as “up to 95%”. The IC50 in data set [4] (complexes formed at MR30, average, listed as H6-C20) was 14.7 nM; in data set [4] (setting [5]) it was 14.8 nM; in data set [4] (complexes formed at MR30 and MR40, similar average value) it was 14.7 to 14.8 nM. The remaining reporter activity in data set [4] was 15%.
Consider `CCCCCCCCCCCCCCCCCC(=O)N[C@@H](Cc1c[nH]cn1)C(=O)N[C@@H](Cc1c[nH]cn1)C(=O)N[C@@H](Cc1ccc(O)cc1)C(=O)N[C@@H](Cc1c[nH]cn1)C(=O)N[C@@H](Cc1c[nH]cn1)C(=O)NCC(=O)NCCC[C@H](N)C(=O)N[C@H](C(=O)N[C@@H](CC(C)C)C(=O)N[C@@H](CC(C)C)C(=O)N[C@@H](CCCCN)C(=O)N[C@@H](C)C(=O)N[C@@H](CC(C)C)C(=O)N[C@@H](CCCCN)C(=O)N[C@@H](C)C(=O)N[C@@H](CC(C)C)C(=O)N[C@@H](C)C(=O)N[C@@H](CCCCN)C(=O)N[C@@H](C)C(=O)N[C@H](C(=O)N[C@@H](CC(C)C)C(N)=O)[C@@H](C)CC)[C@@H](C)CC` [NF71] (I: H-[Orn]ILLKALKALAKAIL-NH2 / II: Stearoyl-HHYHHG; amide I:1-II:C), for which the siRNA accessible in data set [1] (0.5 mg/ml heparin, complexes pre-formed at MR30) came to 17%. In data set [1], the “accessibility of siRNA in complexes (dye intercalation)” value is recorded as “low accessibility of siRNA”. Also, in data set [1] (complexes pre-formed at MR30), the “stability of complexes to heparin displacement (in words)” value is on record as “less resistant to heparin displacement than NF55/siRNA”. In data set [2], the “reporter gene expression in organs after i.v. CPP/pDNA (in words)” value was “high reporter gene expression in liver and lungs”. The “transfection level in liver at CR2 compared to CR4” value in data set [2] (liver) worked out at 7 fold. In data set [2] (lungs), the “transfection level in lungs at CR2 compared to CR4” value is 3 fold. Also, in data set [3], the “GFP signal in confocal images” value is on record as “detected GFP signal was the lowest”. Also, the “downregulation of GFP (average, cell lysate fluorescence)” value in data set [3] (siGFP 100 nM) is on record as “lower than with H6^1-C20 or H8-C20”. In data set [4], the “luciferase downregulation efficiency (in words)” value is “most efficient peptides even at low MRs”; the “Red (%) (reduction, based on remaining luminescence on U87 cells post-treatment)” value stood at 88%; the remaining reporter activity came to 13%. The IC50 in data set [4] (complexes formed at MR20) came out at 11.1 nM. The IC50 in data set [4] (setting [5]) worked out at 6.8 nM.
